System: mRNA expression in peripheral blood of individuals with DMD
Assay: Whole-blood gene expression microarray: DMD administered deflazacort vs DMD administered prednisone
Type: in vivo, human
Conditions: for p-value / p-value (t-test, deflazacort vs. prednisone) / p-value (t-test, deflazacort vs prednisone): deflazacort vs. prednisone
Protocol: Fifteen ml of blood was collected from each individual into 6 PAXgene® Vacutainer® tubes (PreAnalytiX, Germany) by antecubital fossa venipuncture. PAXgene® tubes contain a proprietary reagent that immediately stabilizes RNA, thus reducing RNA degradation and minimizing gene expression changes following phlebotomy. The tubes were then inverted 20 times, then remained undisturbed for 2 h at room temperature (about 19° C. to about 22° C.), and then stored at -70° C. until processed. Total RNA was isolated using the Paxgene® blood RNA kit (PreAnalytiX, Germany) according to the manufacturers instructions. The RNA isolated is from all cells in whole blood. Typical yields of total RNA isolated from about 7.5 ml of human whole blood were between 10 μg RNA and 40 μg RNA. RNA quality and purity was analyzed by spectrophotometry using the Nanodrop ND-1000, and RNA integrity was analyzed using the Agilent 2100 Bioanalyzer. […] Sample labeling, hybridization to chips, and image scanning were performed using standard Affymetrix protocols. For each whole blood sample from control individuals and individuals with DMD, total RNA was labeled using the One-Cycle Target Labeling protocol and hybridized to the arrays. […] Double-stranded cDNA synthesis, biotin-labeled cRNA synthesis, and cRNA fragmentation were performed according to the Affymetrix GeneChip Eukaryotic Expression Analysis protocol. The labeled, fragmented cRNA (15 μg) was hybridized at 45° C. overnight. After hybridization, the array was washed and stained. The arrays were scanned with an argon-ion laser at λ=570 nm, with a resolution of 3 μm/pixel (Affymetrix, Inc.). After scanning the array, the raw probe level values for each probe were saved in Affymetrix.cel files. […] Statistical analyses, including t-test analyses, unsupervised hierarchical clustering, and principal component analyses were conducted using Genespring 7.2 software ([…]® 7, Silicon Genetics, Redwood City Calif.). […] Corrections for multiple comparisons used a Benjamini-Hochberg False Discovery Rate (FDR) of 0.05, disclosed in Tang et al., J Cereb Blood Flow Metab 26 (2006) 1089, which is expressly incorporated by reference herein in its entirety. […] Sample processing and array hybridization, probe-level data analysis, and statistical analysis were identical to Example 1.

In the case of CC(=O)OCC(=O)[C@@]12N=C(C)O[C@@H]1C[C@H]1[C@@H]3CCC4=CC(=O)C=C[C@]4(C)[C@H]3[C@@H](O)C[C@@]12C [deflazacort], the “expression of retinoic acid receptor α (RARa)” value (deflazacort compared to prednisone, blood) is reported as “significantly up-regulated”, the p-value (AA100891, Nucleic Acid No. 2100) is reported as 0.0498 and the p-value (AA534416, Nucleic Acid No. 2105) is reported as 0.0123. The “p-value (t-test, deflazacort vs. prednisone)” value (AA679303, Nucleic Acid No. 2067) was 0.0185, the p-value (AA702409, Nucleic Acid No. 2116) was 0.0453 and the “p-value (t-test, deflazacort vs. prednisone)” value (AA789296, Nucleic Acid No. 2010) was 0.0291. The “p-value (t-test, deflazacort vs. prednisone)” value (AA830854, Nucleic Acid No. 1325) was 0.0452, the “p-value (t-test, deflazacort vs prednisone)” value (AB023216, Nucleic Acid No. 2081) was 0.00521 and the “p-value (t-test, deflazacort vs prednisone)” value (AB033106, Nucleic Acid No. 2083) was 0.0446. For the same molecule, the p-value (AF005774, Nucleic Acid No. 1945) was 0.0104, the p-value (AF009616, Nucleic Acid No. 1950) was 0.0293 and the p-value (AF009619, Nucleic Acid No. 1943) was 0.0064. The p-value (AF015451, Nucleic Acid No. 1946) was 0.0107, the p-value (AF041459, Nucleic Acid No. 1944) was 0.00822 and the p-value (AF041461, Nucleic Acid No. 1947) was 0.013. The p-value (AF075067, Nucleic Acid No. 2112) was 0.0376, the p-value (AF083208, Nucleic Acid No. 1892) was 0.00348 and the “p-value (t-test, deflazacort vs prednisone)” value (AF098114, Nucleic Acid No. 2069) was 0.0202. For the same molecule, the p-value (AF147300, Nucleic Acid No. 1995) was 0.0271, the “p-value (t-test, deflazacort vs prednisone)” value (AF207547, Nucleic Acid No. 2088) was 0.00744 and the p-value (AF285167, Nucleic Acid No. 1894) was 0.0117. For the same molecule, the p-value (AF313468, Nucleic Acid No. 1956) was 0.0435, the p-value (AF400600, Nucleic Acid No. 1955) was 0.0263 and the p-value (AF400602, Nucleic Acid No. 1954) was 0.0148. For the same molecule, the “p-value (t-test, deflazacort vs prednisone)” value (AF499918, Nucleic Acid No. 2091) was 0.0369, the “p-value (t-test, deflazacort vs. prednisone)” value (AI017983, Nucleic Acid No. 1338) was 0.0323 and the “p-value (t-test, deflazacort vs. prednisone)” value (AI056689, Nucleic Acid No. 2031) was 0.043. For the same molecule, the “p-value (t-test, deflazacort vs prednisone)” value (AI080505, Nucleic Acid No. 2099) was 0.0412, the p-value (AI091372, Nucleic Acid No. 1918) was 0.00592 and the p-value (AI093231, Nucleic Acid No. 1906) was 0.0085. The “p-value (t-test, deflazacort vs. prednisone)” value (AI250910, Nucleic Acid No. 2014) was 0.0029, the p-value (AI342146, Nucleic Acid No. 1905) was 0.048 and the “p-value (t-test, deflazacort vs. prednisone)” value (AI393727, Nucleic Acid No. 2034) was 0.0345. For the same molecule, the p-value (AI436803, Nucleic Acid No. 1916) was 0.00828, the “p-value (t-test, deflazacort vs prednisone)” value (AI535735, Nucleic Acid No. 2089) was 0.0426 and the “p-value (t-test, deflazacort vs. prednisone)” value (AI608725, Nucleic Acid No. 2053) was 6.16E−05. The p-value (AI651726, Nucleic Acid No. 2119) was 0.0107, the p-value (AI670862, Nucleic Acid No. 2017) was 0.0109 and the “p-value (t-test, deflazacort vs. prednisone)” value (AI719730, Nucleic Acid No. 2039) was 0.00281. The p-value (AI762695, Nucleic Acid No. 1996) was 0.032, the p-value (AI768497, Nucleic Acid No. 1910) was 0.0137 and the “p-value (t-test, deflazacort vs prednisone)” value (AI814925, Nucleic Acid No. 2072) was 0.0422. The “p-value (t-test, deflazacort vs prednisone)” value (AI830331, Nucleic Acid No. 2075) was 0.0149, the “p-value (t-test, deflazacort vs. prednisone)” value (AI830490, Nucleic Acid No. 2028) was 0.0146 and the p-value (AI860150, Nucleic Acid No. 2018) was 0.026. For the same molecule, the p-value (AI862537, Nucleic Acid No. 2118) was 0.0333, the “p-value (t-test, deflazacort vs. prednisone)” value (AI868267, Nucleic Acid No. 1444) was 0.0285 and the “p-value (t-test, deflazacort vs. prednisone)” value (AI906424, Nucleic Acid No. 2044) was 0.0287. For the same molecule, the “p-value (t-test, deflazacort vs. prednisone)” value (AI926544, Nucleic Acid No. 2054) was 0.0136, the p-value (AI985590, Nucleic Acid No. 1901) was 0.0389 and the p-value (AJ422148, Nucleic Acid No. 2104) was 0.026. For the same molecule, the p-value (AK000119, Nucleic Acid No. 2121) was 0.0375, the “p-value (t-test, deflazacort vs. prednisone)” value (AK023348, Nucleic Acid No. 2037) was 0.0274 and the p-value (AK024677, Nucleic Acid No. 1915) was 0.00386. The “p-value (t-test, deflazacort vs. prednisone)” value (AK024911, Nucleic Acid No. 2045) was 0.0429, the p-value (AK025217, Nucleic Acid No. 1997) was 0.0404 and the “p-value (t-test, deflazacort vs. prednisone)” value (AK074686, Nucleic Acid No. 2042) was 0.0406. For the same molecule, the p-value (AK090660, Nucleic Acid No. 2080) was 0.0288, the “p-value (t-test, deflazacort vs. prednisone)” value (AK092709, Nucleic Acid No. 2013) was 0.0392 and the p-value (AL021977, Nucleic Acid No. 2110) was 0.0121. For the same molecule, the p-value (AL049250, Nucleic Acid No. 2101) was 0.0486, the “p-value (t-test, deflazacort vs. prednisone)” value (AL049273, Nucleic Acid No. 1402) was 0.0448 and the “p-value (t-test, deflazacort vs prednisone)” value (AL137645, Nucleic Acid No. 906) was 0.0416. The “p-value (t-test, deflazacort vs. prednisone)” value (AL832727, Nucleic Acid No. 2022) was 0.0334, the p-value (AL833448, Nucleic Acid No. 2084) was 0.0326 and the p-value (AU145206, Nucleic Acid No. 1909) was 0.046. For the same molecule, the p-value (AU158358, Nucleic Acid No. 1897) was 0.0325.

Source: patent US20110217715A1, “GENE EXPRESSION IN DUCHENNE MUSCULAR DYSTROPHY” (CHILDREN'S HOSPITAL MEDICAL CENTER, priority 2008, published 2011)
